Activity calls are given as the source filed them. No rule for the calls is given here.
System: CCRIS mutagenicity, Ames/micronucleus/aberration tests
Assay: CCRIS mutagenicity studies
[1] = Test System: AMES SALMONELLA TYPHIMURIUM, Strain/Indicator: TA98, Metabolic Activation: NONE, Method: STANDARD PLATE
[2] = Test System: AMES SALMONELLA TYPHIMURIUM, Strain/Indicator: TA100, Metabolic Activation: NONE, Method: STANDARD PLATE
[3] = Test System: AMES SALMONELLA TYPHIMURIUM, Strain/Indicator: TA1535, Metabolic Activation: NONE, Method: STANDARD PLATE
[4] = Test System: AMES SALMONELLA TYPHIMURIUM, Strain/Indicator: TA1537, Metabolic Activation: NONE, Method: STANDARD PLATE
[5] = Test System: AMES SALMONELLA TYPHIMURIUM, Strain/Indicator: TA1538, Metabolic Activation: NONE, Method: STANDARD PLATE

Measured: mutagenic call

Cc1cccn2c(=O)c(-c3nnn[nH]3)cnc12
inactive: [1] inactive; negative | Test System: AMES SALMONELLA TYPHIMURIUM, Strain/Indicator: TA98, Metabolic Activation: S-9, Method: STANDARD PLATE inactive; negative | [2] inactive; negative | Test System: AMES SALMONELLA TYPHIMURIUM, Strain/Indicator: TA100, Metabolic Activation: S-9, Method: STANDARD PLATE inactive; negative | [3] inactive; negative | Test System: AMES SALMONELLA TYPHIMURIUM, Strain/Indicator: TA1535, Metabolic Activation: S-9, Method: STANDARD PLATE inactive; negative | [4] inactive; negative | Test System: AMES SALMONELLA TYPHIMURIUM, Strain/Indicator: TA1537, Metabolic Activation: S-9, Method: STANDARD PLATE inactive; negative | [5] inactive; negative | Test System: AMES SALMONELLA TYPHIMURIUM, Strain/Indicator: TA1538, Metabolic Activation: S-9, Method: STANDARD PLATE inactive; negative | Test System: E. COLI, Strain/Indicator: WP2 UVRA, Metabolic Activation: NONE, Method: STANDARD PLATE inactive; negative | Test System: E. COLI, Strain/Indicator: WP2 UVRA, Metabolic Activation: S-9, Method: STANDARD PLATE inactive; negative

O=[N+]([O-])c1ccc2c3c(cccc13)C=C2
active: [1] active; positive

Nc1ncnc2c1ncn2[C@@H]1O[C@H](CO)C[C@@H]1F
inactive: Test System: Mouse lymphoma, Strain/Indicator: L5178Y (tk+/tk-), Metabolic Activation: None, Method: Suspension/plate inactive; negative
active: Test System: Mouse lymphoma, Strain/Indicator: L5178Y (tk+/tk-), Metabolic Activation: Rat, Liver, S-9, Aroclor 1254, Method: Suspension/plate active; equivocal (previous revaluation positive)

Nc1ccc(/C=C/c2ccc(N)c(S(=O)(=O)O)c2)c(S(=O)(=O)O)c1
inactive: Test System: AMES SALMONELLA TYPHIMURIUM, Strain/Indicator: TA98, Metabolic Activation: HAMSTER, LIVER, S-9, AROCLOR 1254 (10%), Method: PREINCUBATION inactive; negative | Test System: AMES SALMONELLA TYPHIMURIUM, Strain/Indicator: TA98, Metabolic Activation: NONE, Method: PREINCUBATION inactive; negative | Test System: AMES SALMONELLA TYPHIMURIUM, Strain/Indicator: TA98, Metabolic Activation: RAT, LIVER, S-9, AROCLOR 1254 (10%), Method: PREINCUBATION inactive; negative | Test System: AMES SALMONELLA TYPHIMURIUM, Strain/Indicator: TA100, Metabolic Activation: HAMSTER, LIVER, S-9, AROCLOR 1254 (10%), Method: PREINCUBATION inactive; negative | Test System: AMES SALMONELLA TYPHIMURIUM, Strain/Indicator: TA100, Metabolic Activation: NONE, Method: PREINCUBATION inactive; negative | Test System: AMES SALMONELLA TYPHIMURIUM, Strain/Indicator: TA100, Metabolic Activation: RAT, LIVER, S-9, AROCLOR 1254 (10%), Method: PREINCUBATION inactive; negative | Test System: AMES SALMONELLA TYPHIMURIUM, Strain/Indicator: TA1535, Metabolic Activation: HAMSTER, LIVER, S-9, AROCLOR 1254 (10%), Method: PREINCUBATION inactive; negative | Test System: AMES SALMONELLA TYPHIMURIUM, Strain/Indicator: TA1535, Metabolic Activation: NONE, Method: PREINCUBATION inactive; negative | Test System: AMES SALMONELLA TYPHIMURIUM, Strain/Indicator: TA1535, Metabolic Activation: RAT, LIVER, S-9, AROCLOR 1254 (10%), Method: PREINCUBATION inactive; negative | Test System: AMES SALMONELLA TYPHIMURIUM, Strain/Indicator: TA1537, Metabolic Activation: HAMSTER, LIVER, S-9, AROCLOR 1254 (10%), Method: PREINCUBATION inactive; negative | Test System: AMES SALMONELLA TYPHIMURIUM, Strain/Indicator: TA1537, Metabolic Activation: NONE, Method: PREINCUBATION inactive; negative | Test System: AMES SALMONELLA TYPHIMURIUM, Strain/Indicator: TA1537, Metabolic Activation: RAT, LIVER, S-9, AROCLOR 1254 (10%), Method: PREINCUBATION inactive; negative

O=S(O)S(=O)(=O)O
active: End Point: In vitro chromosomal aberration, Test System: Human lymphocytes, Metabolic Activation: None active; positive (structural changes) | End Point: In vitro micronucleus, Test System: Human lymphocytes, Metabolic Activation: None active; positive | End Point: In vivo micronucleus, Test System: Bone marrow cells, Species: Rat, Strain/Sex: Rattus norvegicus var. albino / Male, female, Route: Intraperitoneal active; positive (structural changes)
inactive: Test System: AMES SALMONELLA TYPHIMURIUM, Strain/Indicator: TA97, Metabolic Activation: NONE, Method: PREINCUBATION inactive; negative | Test System: AMES SALMONELLA TYPHIMURIUM, Strain/Indicator: TA97, Metabolic Activation: RAT, LIVER, S-9, AROCLOR 1254, Method: PREINCUBATION inactive; negative | [1] inactive; negative | Test System: AMES SALMONELLA TYPHIMURIUM, Strain/Indicator: TA98, Metabolic Activation: RAT, LIVER, S-9, AROCLOR 1254, Method: STANDARD PLATE inactive; negative | [2] inactive; negative | Test System: AMES SALMONELLA TYPHIMURIUM, Strain/Indicator: TA100, Metabolic Activation: RAT, LIVER, S-9, AROCLOR 1254, Method: STANDARD PLATE inactive; negative | Test System: AMES SALMONELLA TYPHIMURIUM, Strain/Indicator: TA102, Metabolic Activation: NONE, Method: PREINCUBATION inactive; negative | Test System: AMES SALMONELLA TYPHIMURIUM, Strain/Indicator: TA102, Metabolic Activation: RAT, LIVER, S-9, AROCLOR 1254, Method: PREINCUBATION inactive; negative | [3] inactive; negative | Test System: AMES SALMONELLA TYPHIMURIUM, Strain/Indicator: TA1535, Metabolic Activation: RAT, LIVER, S-9, AROCLOR 1254, Method: STANDARD PLATE inactive; negative | [4] inactive; negative | Test System: AMES SALMONELLA TYPHIMURIUM, Strain/Indicator: TA1537, Metabolic Activation: RAT, LIVER, S-9, AROCLOR 1254, Method: STANDARD PLATE inactive; negative | [5] inactive; negative | Test System: AMES SALMONELLA TYPHIMURIUM, Strain/Indicator: TA1538, Metabolic Activation: RAT, LIVER, S-9, AROCLOR 1254, Method: STANDARD PLATE inactive; negative | Test System: E. COLI, Strain/Indicator: WP2, Metabolic Activation: NONE, Method: STANDARD PLATE inactive; negative | Test System: E. COLI, Strain/Indicator: WP2, Metabolic Activation: RAT, LIVER, S-9, AROCLOR 1254, Method: STANDARD PLATE inactive; negative

Reference: PubChem BioAssay AID1259407 (Chemical Carcinogenesis Research Information System (CCRIS), 2018)
